Like-named read-outs stand apart in the source and are kept apart here.
Legend:
[1] = biological target: T1, β5 subunit of the human constitutive 20S proteasome (Homo sapiens, UniProt P20618+P28074); test: In vitro β5 proteasome inhibitory activity and kinetic constants (Suc-LLVY-AMC, chymotrypsin-like activity); type: biochemical; conditions: for K′i (apparent β5 subunit inhibitory activity): human erythrocyte 20S proteasome, chymotrypsin-like activity, 37 °C; for kinact/KI: read-out: k assoc (k2/Ki)
T1 construct: human erythrocyte 20S; purchased R&D Systems, Inc; host or cells: human erythrocytes (native, purified from tissue)
Excerpt: First, the effect of modifying the macrocycle was investigated for 1–3 by analyzing the inhibitory activity of the β5 subunit of the human constitutive 20S proteasome. […] The k 2/K i ratio represents the second-order rate constant for the reaction of the inhibitor with the target (k assoc), and it indicates the overall inhibitory potency of the inhibitor.
4) Evaluation of in vitro β5 proteasome inhibitory activity and determination of kinetic […]
In vitro proteasome inhibitory activity was measured on 96-well microtiter plates using human erythrocyte 20S proteasome (R&D Systems, Inc.) with the AK-740 Assay Kit for Drug Discovery (Biomol). Reactions were performed at 37 °C in 100 μ L volu mes containing a serial dilution of test samples, 2 μ g/mL 20S proteasome, and 100 μM Suc-L LV Y -AMC for assaying chymotrypsin-like activity, according to the manufacture’s instructions.
Fluorescence was monitored with an infinite M200 microplate reader (Tecan) equipped with 360 nm excitation and […]
The observed rate constant for inhibition, kobs, at each concentration was determined fro m the slope of a semi-logarithmic plot of inhibition versus […]
equation, k obs = k 2[I]/(K i+[I]), to obtain values for Ki and k2. The k2/Ki ratio represents the second -order rate constant for the reaction of the inhibitor with the target. S7)

[2] = tested on: human myeloma Amo-1 cells; test: Anti-proliferation activity against Amo-1 cells (CCK-8); type: cell-based
Protocol: 5) Evaluation of anti -proliferation activity against Amo- 1cells
Cell proliferation assays were performed using the Cell Counting Kit-8 (CCK-8) (Dojindo, CK04) according to the manufacturer’s protocol. In brief, Amo- 1 cells were cultured in RPMI1640 medium containing 10% FBS and 1% penicillin -strepto myc in.
After culturing for 24 h at 37 °C under atmosphere of 5% CO2, the cells were treated with a solution of the compound in DMSO (1 µL) at 37 °C for 72 h. A solution of the CCK-8 (10 µL) was then added to each well and the cells were incubated at 37 °C for 3 h. The absorbance at 450 nm was measured using an Infinite M200 PRO multimode microplate reader (Tecan). The data points were calculated from the average (±standard deviation) of three assays […]
(IC 50) were calculated from curves constructed by plotting cell proliferation (%) versus the log of compound […]
(1 picture or pasted object on this page, not shown here)

[3] = from fit kobs = k2[I]/(Ki + [I])
[4] = AMO1, Amo-1 cells, 72 h, CCK-8, read-out: IC50 (cell proliferation)
[5] = second-order rate constant, k2/Ki ratio

Row | Structure (SMILES) | k 2 [1, 3] | K′i (apparent β5 subunit inhibitory activity) [1] | Ki [1, 3] | kinact/KI [1, 5] | also measured
1 | CC(C)[C@H](NC(=O)N[C@H](C(=O)N[C@H]1C/C=C/CNC(=O)/C=C/[C@H](C(C)C)NC1=O)C(C)C)C(=O)O [Isosyringolin A (3), Isosyringolin A] | 0.00339 s⁻¹ | 590 nM | – | – | kinact/KI [1]: 166 M⁻¹ s⁻¹
2 | CC(C)[C@H](NC(=O)N[C@H](C(=O)N[C@H]1/C=C/CCNC(=O)/C=C/[C@H](C(C)C)NC1=O)C(C)C)C(=O)O [Syringolin A (1), Syringolin A, reference compound] | 0.00391 s⁻¹ | 170 nM | – | – | k 2 ([1]; as printed in text in s^–1): 3.91 × 10^–3 s^–1; kinact/KI [1]: 1770 M⁻¹ s⁻¹
3 | CCCCCCCCCC(=O)N[C@@H](Cc1ccccc1)C(=O)N[C@H]1/C=C/CCNC(=O)/C=C/[C@H](C(C)C)NC1=O [analogue 4] | – | – | – | – | IC50 ([2]; AMO1, 72 h, read-out: IC50 (cell proliferation)): 4.33 ± 1.6 nM
4 | CCCCCCCCCC(=O)N[C@@H](Cc1ccccc1)C(=O)N[C@H]1CC/C=C/CNC(=O)/C=C/[C@H](C(C)C)NC1=O [analogue 10] | 0.00134 s⁻¹ | 79.2 nM | 527 nM | 2550 M⁻¹ s⁻¹ | –
5 | CCCCCCCCCC(=O)N[C@@H](Cc1ccccc1)C(=O)N[C@H]1C/C=C/CCNC(=O)/C=C/[C@H](C(C)C)NC1=O [analogue 11] | 0.000875 s⁻¹ | 320 nM | 1230 nM | 713 M⁻¹ s⁻¹ | –
6 | CCCCCCCCCC(=O)N[C@@H](Cc1ccccc1)C(=O)N[C@H]1CCCCCNC(=O)/C=C/[C@H](C(C)C)NC1=O [analogue 12] | 0.00203 s⁻¹ | 402 nM | 9090 nM | 224 M⁻¹ s⁻¹ | –
7 | CCCCCCCCCC(=O)N[C@@H](Cc1ccc(-c2ccccc2)cc1)C(=O)N[C@H]1/C=C/CNC(=O)/C=C/[C@H](C(C)C)NC1=O [analogue 14] | 0.00428 s⁻¹ | 0.77 nM | 42.2 nM | 101000 M⁻¹ s⁻¹ | IC50 [2, 4]: 12.1 nM; k assoc (k2/Ki) [1, 5]: 101422 s^–1 M^–1

Further lines, with some results ahead:

Row | k 2 [1, 3] | K′i (apparent β5 subunit inhibitory activity) [1] | Ki [1, 3] | kinact/KI [1, 5] | Structure (SMILES) | also measured
8 | 0.00551 s⁻¹ | 20.6 nM | 432 nM | 12800 M⁻¹ s⁻¹ | CCCCCCCCCC(=O)N[C@@H](Cc1ccccc1)C(=O)N[C@H]1/C=C/CNC(=O)/C=C/[C@H](C(C)C)NC1=O [analogue 8] | IC50 [2, 4]: 26.3 ± 9.3 nM; K i, decrease in affinity relative to 4 ([1]; decrease relative to 4): 6.3 fold; k 2 relative to 4 ([1]; greater than that of the 12-membered 4): 1.29 fold
9 | 0.00365 s⁻¹ | 48.2 nM | 547 nM | 6670 M⁻¹ s⁻¹ | CCCCCCCCCC(=O)N[C@@H](Cc1ccccc1)C(=O)N[C@H]1CCCNC(=O)/C=C/[C@H](C(C)C)NC1=O [analogue 9] | –
10 | – | >1000 nM | – | – | C=CC[C@H](NC(=O)[C@H](Cc1ccccc1)NC(=O)CCCCCCCCC)C(=O)N[C@H](/C=C/C(=O)NC)C(C)C [analogue 13] | inhibitory activity ([1]; β5 subunit): no inhibitory activity
